Assay results reported in patent publication US10336761B2, “TGFβ receptor antagonist” (BRISTOL-MYERS SQUIBB COMPANY, priority 2015, dated 2019).

Columns and labels:
[1] = molecular target: GST tagged wild type TGFβR1 (Homo sapiens (Human), UniProt P36897); assay: HTRF probe-displacement assay, GST tagged wild type TGFβR1; assay type: binding; settings: GST tagged wild type proteins were used instead of HIS-tagged proteins
Procedure: Compounds were dissolved at 10 mM in dimethylsulfoxide (DMSO) and evaluated at eleven concentrations. IC50 values were derived by non-linear regression analysis.

HIS-TGFβR1 T204D = HIS-TGFβR1 T204D (Homo sapiens (Human), UniProt P36897, T204D); assay: HTRF probe-displacement assay, HIS-TGFβR1 T204D; assay type: binding; settings: 1 hour at room temperature
Sequence of HIS-TGFβR1 T204D (P36897 34-503 T204D): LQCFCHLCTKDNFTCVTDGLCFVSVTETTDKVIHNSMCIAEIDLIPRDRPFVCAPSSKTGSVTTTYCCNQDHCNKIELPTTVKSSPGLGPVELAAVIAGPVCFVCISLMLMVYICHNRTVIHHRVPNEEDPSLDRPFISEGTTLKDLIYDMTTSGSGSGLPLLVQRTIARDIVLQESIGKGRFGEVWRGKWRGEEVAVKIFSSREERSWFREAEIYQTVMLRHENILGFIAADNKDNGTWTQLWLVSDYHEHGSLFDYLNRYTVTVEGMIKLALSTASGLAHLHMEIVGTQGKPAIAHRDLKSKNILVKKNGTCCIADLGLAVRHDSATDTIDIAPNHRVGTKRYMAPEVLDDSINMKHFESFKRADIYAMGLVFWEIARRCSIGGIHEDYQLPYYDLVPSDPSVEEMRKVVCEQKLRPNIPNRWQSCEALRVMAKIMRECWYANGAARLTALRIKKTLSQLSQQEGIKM

Sequence of GST tagged wild type TGFβR1 (P36897 34-503): as the sequence (P36897 34-503 T204D) above, with D171T counted along it

Compound | IC50 [1] | IC50 (HIS-TGFβR1 T204D)
O=C(NCCN1CCS(=O)(=O)CC1)c1cnccc1Nc1nc(-c2ccccn2)nn2cccc12 [Example 147, N-[2-(1,1-dioxo-1,4-thiomorpholin-4-yl)ethyl]-4-{[2-(pyridin-2-yl)pyrrolo[2,1-f][1,2,4]triazin-4-yl]amino}pyridine-3-carboxamide] | 2600 nM | –
CN1CCN(Cc2ccn3nc(-c4cccc(C(F)F)n4)nc(Nc4ccncc4F)c23)CC1 [Example 122, N-{2-[6-(difluoromethyl)pyridin-2-yl]-5-[(4-methylpiperazin-1-yl)methyl]pyrrolo[2,1-f][1,2,4]triazin-4-yl}-3-fluoropyridin-4-amine] | 6 nM | –
Cc1nc(-c2nc(Nc3ccncc3F)c3cccn3n2)ccc1F [Example 74, 3-fluoro-N-[2-(5-fluoro-6-methylpyridin-2-yl)pyrrolo[2,1-f][1,2,4]triazin-4-yl]pyridin-4-amine] | 6.1 nM | –
Cc1ccnc(-c2nc(Nc3ccncc3F)c3cccn3n2)c1 [Example 62, 3-fluoro-N-[2-(4-methylpyridin-2-yl)pyrrolo[2,1-f][1,2,4]triazin-4-yl]pyridin-4-amine] | 1700 nM | –
CN1CCN(CCCNC(=O)c2cnccc2Nc2nc(-c3cccc(C(F)F)n3)nn3cccc23)CC1 [Example 176, 4-({2-[6-(difluoromethyl)pyridin-2-yl]pyrrolo[2,1-f][1,2,4]triazin-4-yl}amino)-N-[3-(4-methylpiperazin-1-yl)propyl]pyridine-3-carboxamide] | – | 8.5 nM
CC(C)(C)C(=O)Nc1cc(Nc2nc(-c3cccc(C(F)(F)F)n3)nn3cccc23)ccn1 [Example 342, 2,2-dimethyl-N-[4-({2-[6-(trifluoromethyl)pyridin-2-yl]pyrrolo[2,1-f][1,2,4]triazin-4-yl}amino)pyridin-2-yl]propanamide] | – | 160 nM
Fc1ccc(-c2nc(Nc3ccncc3F)c3cccn3n2)nc1 [Example 65, 3-fluoro-N-[2-(5-fluoropyridin-2-yl)pyrrolo[2,1-f][1,2,4]triazin-4-yl]pyridin-4-amine] | – | 0.79 nM
COc1cccc(-c2nc(Nc3ccncc3F)c3cc(N)cn3n2)n1 [Example 103, 4-N-(3-fluoropyridin-4-yl)-2-(6-methoxypyridin-2-yl)pyrrolo[2,1-f][1,2,4]triazine-4,6-diamine] | – | 140 nM
